Laboratory results published in patent US6087493A, “Porphyrin compounds as telomerase inhibitors” (Regents of the University of Texas System, priority 1998, dated 2000).

Target: human telomerase (Homo sapiens, UniProt O14746)
Assay: Telomerase inhibition, primer extension assay in HeLa cell extract
Format: biochemical
Conditions: not given

Sequence of human telomerase (O14746 whole entry): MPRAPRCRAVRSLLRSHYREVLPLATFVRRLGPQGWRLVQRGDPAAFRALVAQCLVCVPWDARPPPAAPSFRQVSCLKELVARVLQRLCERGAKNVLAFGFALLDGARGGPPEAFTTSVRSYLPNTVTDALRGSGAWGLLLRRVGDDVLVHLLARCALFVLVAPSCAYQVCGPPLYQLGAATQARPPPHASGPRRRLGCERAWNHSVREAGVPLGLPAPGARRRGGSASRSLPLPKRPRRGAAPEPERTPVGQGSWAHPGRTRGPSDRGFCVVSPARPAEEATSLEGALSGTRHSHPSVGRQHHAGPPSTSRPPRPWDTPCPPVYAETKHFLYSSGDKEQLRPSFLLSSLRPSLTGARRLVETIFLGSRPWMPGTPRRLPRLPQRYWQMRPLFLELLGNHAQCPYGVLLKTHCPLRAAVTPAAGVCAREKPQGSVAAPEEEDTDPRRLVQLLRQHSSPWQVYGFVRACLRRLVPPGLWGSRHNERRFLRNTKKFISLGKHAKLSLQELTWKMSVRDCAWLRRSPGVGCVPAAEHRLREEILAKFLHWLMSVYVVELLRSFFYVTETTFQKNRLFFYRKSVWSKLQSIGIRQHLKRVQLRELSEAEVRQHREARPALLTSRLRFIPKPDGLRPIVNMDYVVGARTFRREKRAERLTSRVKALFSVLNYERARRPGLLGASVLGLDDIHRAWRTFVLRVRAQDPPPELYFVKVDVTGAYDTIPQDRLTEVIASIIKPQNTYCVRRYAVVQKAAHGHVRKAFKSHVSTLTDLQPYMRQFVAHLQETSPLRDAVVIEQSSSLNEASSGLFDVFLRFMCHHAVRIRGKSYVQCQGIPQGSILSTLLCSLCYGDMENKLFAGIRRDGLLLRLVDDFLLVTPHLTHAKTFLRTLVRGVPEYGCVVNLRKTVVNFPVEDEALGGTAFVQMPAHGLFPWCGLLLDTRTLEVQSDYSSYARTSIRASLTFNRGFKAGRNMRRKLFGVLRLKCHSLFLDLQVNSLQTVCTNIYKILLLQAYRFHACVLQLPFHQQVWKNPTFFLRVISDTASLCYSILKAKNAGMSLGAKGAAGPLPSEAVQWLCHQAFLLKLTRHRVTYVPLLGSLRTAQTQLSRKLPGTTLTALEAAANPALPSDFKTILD

| Compound | telomerase inhibition in words |
| --- | --- |
| C[n+]1ccc(-c2c3nc(c(-c4cc[n+](C)cc4)c4ccc([n-]4)c(-c4cc[n+](C)cc4)c4nc(c(-c5cc[n+](C)cc5)c5ccc2[n-]5)C=C4)C=C3)cc1.[Cl-].[Cl-].[Cl-].[Cl-].[Zn+2] [TMPyP4 ZnII] | better inhibitors |
| Copper(II)tetra-N-methyl-tetrazaphthalocyanine [Compound D7] | only slight activity |
| Copper(II)tetraaminophthalocyanine [Compound B14] | active |

Same assay, conditions: 25 µM

| Compound | % Inhibition of telomerase [%] |
| --- | --- |
| C[n+]1ccc(-c2c3nc(c(-c4cc[n+](C)cc4)c4ccc([n-]4)c(-c4cc[n+](C)cc4)c4nc(c(-c5cc[n+](C)cc5)c5ccc2[n-]5)C=C4)C=C3)cc1.[Cl-].[Cl-].[Cl-].[Cl-].[Zn+2] [TMPyP4 ZnII] | 88 |

Same assay, conditions: 25 μM; Table 5

| Compound | % Inhibition of telomerase [%] |
| --- | --- |
| Ethylenediamine protoporphyrin-IX [Compound B19] | 0 |

Same assay, conditions: 25 μM; Table 5; read-out: % Inhibition of telomerase

| Compound | inhibition at 25 µM [%] |
| --- | --- |
| C[N+](C)(C)c1ccc(-c2c3nc(c(-c4ccc([N+](C)(C)C)cc4)c4ccc([nH]4)c(-c4ccc([N+](C)(C)C)cc4)c4nc(c(-c5ccc([N+](C)(C)C)cc5)c5ccc2[nH]5)C=C4)C=C3)cc1 [TAP (B23), tetra(N,N,N-trimethyl-4-aminophenyl)porphyrin chloride] | 6 |

Same assay, conditions: 25 μM; Table 9; read-out: % Inhibition of telomerase

| Compound | inhibition at 25 µM [%] |
| --- | --- |
| O=[N+]([O-])c1cc(-c2c3nc(cc4ccc([nH]4)c(-c4ccc(O)c([N+](=O)[O-])c4)c4nc(cc5ccc2[nH]5)C=C4)C=C3)ccc1O [Compound D14] | 55 |
| COc1ccc(-c2c3nc(c(-c4ccc(OC)c(O)c4)c4ccc([nH]4)c(-c4ccc(OC)c(O)c4)c4nc(c(-c5ccc(OC)c(O)c5)c5ccc2[nH]5)C=C4)C=C3)cc1O [Compound D17, 5,10,15,20-tetra-(4-methoxy-3-hydroxyphenyl)porphine] | 50 |

Same assay, conditions: 25 μM; Table 13; read-out: % Inhibition of telomerase

| Compound | inhibition at 25 µM [%] |
| --- | --- |
| C[N+](C)(C)c1ccc(-c2c3nc(c(-c4ccc([N+](C)(C)C)cc4)c4ccc([nH]4)c(-c4ccc([N+](C)(C)C)cc4)c4nc(c(-c5ccc([N+](C)(C)C)cc5)c5ccc2[nH]5)C=C4)C=C3)cc1 [TAP (B23), tetra(N,N,N-trimethyl-4-aminophenyl)porphyrin chloride] | 18 |

Same assay, conditions: Table 15; concentration fixed at 25 μM; 25 µM

| Compound | % Inhibition of telomerase [%] |
| --- | --- |
| C=CC1=C(C)c2cc3[nH]c(cc4nc(cc5[nH]c(cc1n2)c(C)c5C=C)C(C)=C4CCC(=O)O)c(CCC(=O)O)c3C [Compound H19] | 16 |

Same assay, conditions: Table 15; concentration fixed at 25 μM; read-out: % Inhibition of telomerase

| Compound | inhibition at 25 µM [%] |
| --- | --- |
| CCC1=C(CC)c2cc3[nH]c(cc4nc(cc5[nH]c(cc1n2)c(CC)c5CC)C(CC)=C4CC)c(CC)c3CC [Compound H1] | 12 |
| CCC1=C(C)c2cc3[nH]c(cc4nc(cc5[nH]c(cc1n2)c(C)c5CC)C(C)=C4CC)c(CC)c3C [Compound H2] | 0 |
| COC(=O)CCC1=C(C)c2cc3cc(C)c(cc4nc(cc5[nH]c(cc1n2)c(CCC(=O)OC)c5C)C(C)=C4)[nH]3 [Compound H7] | 14 |
| COC(=O)CCC1=C(C)c2cc3[nH]c(cc4nc(cc5[nH]c(cc1n2)c(CCC(=O)OC)c5C)C(C)=C4S(=O)(=O)O)c(C)c3S(=O)(=O)O [Compound H8] | 24 |
| COC(=O)CCC1=C(C)c2cc3[nH]c(cc4nc(cc5[nH]c(cc1n2)c(CCC(=O)OC)c5C)C(C)=C4C(C)=O)c(C)c3C(C)=O [Compound H9] | 14 |
| COC(=O)CCC1=C(C)c2cc3[nH]c(cc4nc(cc5[nH]c(cc1n2)c(CCC(=O)OC)c5C)C(C)=C4Br)c(C)c3Br [Compound H10] | 0 |
| COC(=O)CCC1=C(C)c2cc3[nH]c(cc4nc(cc5[nH]c(cc1n2)c(CCC(=O)OC)c5C)C(C)=C4C(C)O)c(C)c3C(C)O (stereo not drawn) [Compound H11] | 20 |
| CC1=C(CCC(=O)O)c2cc3[nH]c(cc4nc(cc5[nH]c(cc1n2)c(C(C)O)c5C)C(C(C)O)=C4C)c(C)c3CCC(=O)O (stereo not drawn) [Compound H12] | 18 |
| CCC1=C(C)c2cc3[nH]c(cc4nc(cc5[nH]c(cc1n2)c(C)c5CC)C(C)=C4CCC(=O)O)c(CCC(=O)O)c3C [Compound H15] | 6 |
| CCC1=C(C)c2cc3[nH]c(cc4nc(cc5[nH]c(cc1n2)c(C)c5CC)C(C)=C4CCC(=O)OC)c(CCC(=O)OC)c3C [Compound H16] | 0 |
| C=CC1=C(C)c2cc3[nH]c(cc4nc(cc5[nH]c(cc1n2)c(C)c5C=C)C(C)=C4CCC(=O)OC)c(CCC(=O)OC)c3C [Compound H17] | 6 |
| C=CC1=C(C)c2cc3[nH]c(cc4nc(cc5[nH]c(cc1n2)c(C)c5C=C)C(C)=C4CCC(=O)O)c(CCC(=O)O)c3C [Compound H18] | 17 |
| COC(=O)CCC1=C(C)c2cc3[nH]c(cc4nc(cc5[nH]c(cc1n2)c(CCC(=O)OC)c5C)C(C)=C4CCC(=O)OC)c(CCC(=O)OC)c3C [Compound H21] | 33 |
| COC(=O)CCC1=C(CC(=O)OC)c2cc3[nH]c(cc4nc(cc5[nH]c(cc1n2)c(CCC(=O)OC)c5CC(=O)OC)C(CC(=O)OC)=C4CCC(=O)OC)c(CCC(=O)OC)c3CC(=O)OC [Compound H22] | 19 |
| CC1=C(CCC(=O)O)c2cc3[nH]c(cc4nc(cc5[nH]c(cc1n2)c(C)c5CCC(=O)O)C(CCC(=O)O)=C4C)c(C)c3CCC(=O)O [Compound H23] | 5 |
| O=C(O)CCC1=C(CC(=O)O)c2cc3[nH]c(cc4nc(cc5[nH]c(cc1n2)c(CCC(=O)O)c5CC(=O)O)C(CC(=O)O)=C4CCC(=O)O)c(CCC(=O)O)c3CC(=O)O [Compound H24] | 4 |
| CCOC(=O)CCc1c(C)c2cc3nc(cc4[nH]c(cc5nc(cc1[nH]2)C(C)=C5CC)c(C)c4CC)C(C)=C3C(=O)OCC [Compound H25] | 18 |
| CCC1=C(C)c2cc3[nH]c(cc4nc(cc5[nH]c(cc1n2)c(C)c5CC)C(C)=C4CCCO)c(CCCO)c3C [Compound H26] | 23 |
| C=CC1=C(C)c2cc3[nH]c(cc4nc(cc5[nH]c(cc1n2)c(C)c5C=C)C(C)=C4CCCO)c(CCCO)c3C [Compound H27] | 24 |
| CCOC(=O)CCC1=C(C)c2cc3[nH]c(cc4nc(cc5[nH]c(cc1n2)c(CC)c5C)C(CC)=C4C)c(C)c3C [Compound H28] | 0 |
| CC(=O)C1=C(C)c2cc3[nH]c(cc4nc(cc5[nH]c(cc1n2)c(C)c5C(C)=O)C(C)=C4CCC(=O)O)c(C)c3CCC(=O)O [Compound H29] | 0 |
| COC(=O)CCC1=C(C)c2cc3[nH]c(cc4nc(cc5[nH]c(cc1n2)c(C)c5CCC(=O)OC)C(C)=C4C)c(C)c3C [Compound H30] | 23 |
| CC1=C(C=O)c2cc3[nH]c(cc4nc(cc5[nH]c(cc1n2)c(CCC(=O)O)c5C)C(CCC(=O)O)=C4C)c(C=O)c3C [Compound H31] | -10 |
| CCC1=C(C)c2cc3[nH]c(cc4nc(cc5[nH]c(cc1n2)c(C)c5CC)C(C)=C4)c(C)c3CC(=O)OC [Compound H32] | 0 |

Test system: not given
Assay: not given
Conditions: 25 μM; Table 9

| Compound | % insoluble remark (solubility) |
| --- | --- |
| O=[N+]([O-])c1cc(-c2c3nc(c(-c4ccc(Cl)c([N+](=O)[O-])c4)c4ccc([nH]4)c(-c4ccc(Cl)c([N+](=O)[O-])c4)c4nc(c(-c5ccc(Cl)c([N+](=O)[O-])c5)c5ccc2[nH]5)C=C4)C=C3)ccc1Cl [Compound D13, 5,10,15,20-tetra-(4-chloro-3-nitrophenyl)porphine] | insoluble |
| O=[N+]([O-])c1cccc(-c2c3nc(cc4ccc([nH]4)c(-c4cccc([N+](=O)[O-])c4)c4nc(cc5ccc2[nH]5)C=C4)C=C3)c1 [Compound D16] | insoluble |
